Data published in PubChem BioAssay (NCI).
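GI50 is the concentration that inhibits growth by half. Definition used: TGI = concentration required for complete inhibition of growth.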

Tests used:
Assay in all cases: NCI anticancer screen, dose series, 384-well format
COLO 205 colon = tested on: COLO 205 colon
M14 melanoma = tested on: M14 melanoma
SNB-19 CNS = tested on: SNB-19 CNS
BT-549 breast = tested on: BT-549 breast
MCF7 breast = tested on: MCF7 breast
786-0 renal = tested on: 786-0 renal
K-562 leukemia = tested on: K-562 leukemia
IGROV1 ovarian = tested on: IGROV1 ovarian
LOX IMVI melanoma = tested on: LOX IMVI melanoma
RPMI-8226 leukemia = tested on: RPMI-8226 leukemia
PC-3 prostate = tested on: PC-3 prostate
SF-295 CNS = tested on: SF-295 CNS
SNB-75 CNS = tested on: SNB-75 CNS
HCT-15 colon = tested on: HCT-15 colon
SF-539 CNS = tested on: SF-539 CNS
A498 renal = tested on: A498 renal
MDA-MB-435 melanoma = tested on: MDA-MB-435 melanoma
HT29 colon = tested on: HT29 colon
NCI-H226 lung = tested on: NCI-H226 lung
HS 578T breast = tested on: HS 578T breast
SK-MEL-28 melanoma = tested on: SK-MEL-28 melanoma
KM12 colon = tested on: KM12 colon
NCI/ADR-RES ovarian = tested on: NCI/ADR-RES ovarian
OVCAR-4 ovarian = tested on: OVCAR-4 ovarian
HOP-92 NSCLC = tested on: HOP-92 NSCLC
OVCAR-5 ovarian = tested on: OVCAR-5 ovarian
T-47D breast = tested on: T-47D breast
MDA-MB-231 breast = tested on: MDA-MB-231 breast
SK-OV-3 ovarian = tested on: SK-OV-3 ovarian
RXF 393 renal = tested on: RXF 393 renal
MALME-3M melanoma = tested on: MALME-3M melanoma
EKVX NSCLC = tested on: EKVX NSCLC
SR leukemia = tested on: SR leukemia
HOP-62 NSCLC = tested on: HOP-62 NSCLC
SW-620 colon = tested on: SW-620 colon
NCI-H23 lung = tested on: NCI-H23 lung
HCC-2998 colon = tested on: HCC-2998 colon
TK-10 renal = tested on: TK-10 renal
UACC-62 melanoma = tested on: UACC-62 melanoma
A549 NSCLC = tested on: A549 NSCLC
HL-60(TB) leukemia = tested on: HL-60(TB) leukemia
CCRF-CEM leukemia = tested on: CCRF-CEM leukemia
NCI-H460 NSCLC = tested on: NCI-H460 NSCLC
MDA-MB-468 breast = tested on: MDA-MB-468 breast
UACC-257 melanoma = tested on: UACC-257 melanoma
MOLT-4 leukemia = tested on: MOLT-4 leukemia
NCI-H522 lung = tested on: NCI-H522 lung
DU-145 prostate = tested on: DU-145 prostate
UO-31 renal = tested on: UO-31 renal
OVCAR-8 ovarian = tested on: OVCAR-8 ovarian
ACHN renal = tested on: ACHN renal
CAKI-1 renal = tested on: CAKI-1 renal
SN12C renal = tested on: SN12C renal
SF-268 CNS = tested on: SF-268 CNS
SK-MEL-5 melanoma = tested on: SK-MEL-5 melanoma
OVCAR-3 ovarian = tested on: OVCAR-3 ovarian
NCI-H322M lung = tested on: NCI-H322M lung

Cn1c(=O)c2c(ncn2CC(=O)Nc2ccc(-c3ccccc3)nn2)n(C)c1=O
GI50 (COLO 205 colon): > 100 µM | TGI (COLO 205 colon): > 100 µM | GI50 (M14 melanoma): > 100 µM | TGI (M14 melanoma): > 100 µM | GI50 (SNB-19 CNS): > 100 µM | TGI (SNB-19 CNS): > 100 µM | GI50 (BT-549 breast): > 100 µM | TGI (BT-549 breast): > 100 µM | GI50 (MCF7 breast): > 100 µM | TGI (MCF7 breast): > 100 µM | GI50 ([…]-0 renal): > 100 µM | TGI (786-0 renal): > 100 µM | GI50 (K-562 leukemia): > 100 µM | TGI (K-562 leukemia): > 100 µM | GI50 (IGROV1 ovarian): > 100 µM | TGI (IGROV1 ovarian): > 100 µM | GI50 (LOX IMVI melanoma): > 100 µM | TGI (LOX IMVI melanoma): > 100 µM | GI50 (RPMI-8226 leukemia): > 100 µM | TGI (RPMI-8226 leukemia): > 100 µM | GI50 (PC-3 prostate): > 100 µM | TGI (PC-3 prostate): > 100 µM | GI50 (SF-295 CNS): > 100 µM | TGI (SF-295 CNS): > 100 µM | GI50 (SNB-75 CNS): > 100 µM | TGI (SNB-75 CNS): > 100 µM | GI50 (HCT-15 colon): > 100 µM | TGI (HCT-15 colon): > 100 µM | GI50 (SF-539 CNS): > 100 µM | TGI (SF-539 CNS): > 100 µM | GI50 (A498 renal): > 100 µM | TGI (A498 renal): > 100 µM | GI50 (MDA-MB-435 melanoma): > 100 µM | TGI (MDA-MB-435 melanoma): > 100 µM | GI50 (HT29 colon): > 100 µM | TGI (HT29 colon): > 100 µM | GI50 (NCI-H226 lung): > 100 µM | TGI (NCI-H226 lung): > 100 µM | GI50 (HS 578T breast): 72.9 µM | TGI (HS 578T breast): > 100 µM | GI50 (SK-MEL-28 melanoma): > 100 µM | TGI (SK-MEL-28 melanoma): > 100 µM | GI50 (KM12 colon): > 100 µM | TGI (KM12 colon): > 100 µM | GI50 (NCI/ADR-RES ovarian): > 100 µM | TGI (NCI/ADR-RES ovarian): > 100 µM | GI50 (OVCAR-4 ovarian): 25.8 µM | TGI (OVCAR-4 ovarian): > 100 µM | GI50 (HOP-92 NSCLC): > 100 µM | TGI (HOP-92 NSCLC): > 100 µM | GI50 (OVCAR-5 ovarian): > 100 µM | TGI (OVCAR-5 ovarian): > 100 µM | GI50 (T-47D breast): 36.3 µM | TGI (T-47D breast): > 100 µM | GI50 (MDA-MB-231 breast): 70.8 µM | TGI (MDA-MB-231 breast): > 100 µM | GI50 (SK-OV-3 ovarian): > 100 µM | TGI (SK-OV-3 ovarian): > 100 µM | GI50 (RXF 393 renal): 27.1 µM | TGI (RXF 393 renal): > 100 µM | GI50 (MALME-3M melanoma): > 100 µM | TGI (MALME-3M melanoma): > 100 µM | GI50 (EKVX NSCLC): > 100 µM | TGI (EKVX NSCLC): > 100 µM | GI50 (SR leukemia): 21.6 µM | TGI (SR leukemia): > 100 µM | GI50 (HOP-62 NSCLC): > 100 µM | TGI (HOP-62 NSCLC): > 100 µM | GI50 (SW-620 colon): > 100 µM | TGI (SW-620 colon): > 100 µM | GI50 (NCI-H23 lung): > 100 µM | TGI (NCI-H23 lung): > 100 µM | GI50 (HCC-2998 colon): > 100 µM | TGI (HCC-2998 colon): > 100 µM | GI50 (TK-10 renal): > 100 µM | TGI (TK-10 renal): > 100 µM | GI50 (UACC-62 melanoma): 74.6 µM | TGI (UACC-62 melanoma): > 100 µM | GI50 (A549 NSCLC): > 100 µM | TGI (A549 NSCLC): > 100 µM | GI50 (HL-60(TB) leukemia): 6.01 µM | TGI (HL-60(TB) leukemia): > 100 µM | GI50 (CCRF-CEM leukemia): 60.2 µM | TGI (CCRF-CEM leukemia): > 100 µM | GI50 (NCI-H460 NSCLC): > 100 µM | TGI (NCI-H460 NSCLC): > 100 µM | GI50 (MDA-MB-468 breast): 15.9 µM | TGI (MDA-MB-468 breast): 96.4 µM | GI50 (UACC-257 melanoma): 49.8 µM | TGI (UACC-257 melanoma): > 100 µM | GI50 (MOLT-4 leukemia): > 100 µM | TGI (MOLT-4 leukemia): > 100 µM | GI50 (NCI-H522 lung): > 100 µM | TGI (NCI-H522 lung): > 100 µM | GI50 (DU-145 prostate): > 100 µM | TGI (DU-145 prostate): > 100 µM | GI50 (UO-31 renal): > 100 µM | TGI (UO-31 renal): > 100 µM | GI50 (OVCAR-8 ovarian): > 100 µM | TGI (OVCAR-8 ovarian): > 100 µM | GI50 (ACHN renal): > 100 µM | TGI (ACHN renal): > 100 µM | GI50 (CAKI-1 renal): > 100 µM | TGI (CAKI-1 renal): > 100 µM | GI50 (SN12C renal): > 100 µM | TGI (SN12C renal): > 100 µM | GI50 (SF-268 CNS): > 100 µM | TGI (SF-268 CNS): > 100 µM | GI50 (SK-MEL-5 melanoma): 3.44 µM | TGI (SK-MEL-5 melanoma): > 100 µM | GI50 (OVCAR-3 ovarian): > 100 µM | TGI (OVCAR-3 ovarian): > 100 µM | GI50 (NCI-H322M lung): > 100 µM | TGI (NCI-H322M lung): > 100 µM
